Data as given in patent US9376380B2 (University of Pittsburgh—Of the Commonwealth System of …, priority 2011, dated 2016).
“Also recorded” adds a separate entry of the source.

Tests used:
[1] = tested on: MM.1R (dexamethasone) and RPMI-8226/LR5 (melphalan) cells; assay: [3H]-thymidine incorporation, chemoresistant myeloma cell lines; assay type: cell-based; settings: Homo sapiens; MM.1R and RPMI-8226/LR5, 48 h; read-out: growth inhibition of chemoresistant myeloma cell lines, IC50
Procedure: (§1) FIG. 2. Inhibitory effects of CB2 ligands on human MM cell growth. Human MM cell U266 (3×10^4 cells per well in 96-well plate) was exposed to the known CB2 ligands (A) or PAM (B) at indicated concentrations (0-10 μmol/L) for 48 h. Cell proliferation was measured by [^3H]-thymidine uptake assay as described in Materials and Methods. (C) U266 cells (3×10^4 per well in 96-well plate) were treated with PAM at indicated doses for 48 h. Cell viability and the viable cell number per well were determined using trypan blue exclusion assay. (D) Human chemoresistant myeloma cell lines MM.1R (dexamethasone), RPMI-8226/LR5 (melphalan) and their respective parent cells MM.1S and RPMI-8226 were exposed to PAM for 48 h. Cell proliferation was measured by ^3H-thymidine incorporation. The data presented are the mean±SD of at least 3 independent measurements. (E) [S^35]-GTPγS binding assay of different ligands on human CB2 receptor expressed in CHO cells.
(§2) A tritiated thymidine incorporation assay was carried out to investigate the effects of CB2 ligands on cell proliferation. U266, RPMI-8226 (3×10^4 cells/well), MM.1 S cells (6×10^4 cells/well), and their resistant sublines were cultured in 96-well culture plates with or without drugs for 48 hours. DNA synthesis was measured by ^3H-thymidine uptake as described previously.

MM cells = assay: Apoptosis and cell cycle protein studies in MM cells; assay type: cell-based
Description: Since drug resistance is a prevalent problem in multiple myeloma clinical treatment, the ability of compounds according to this invention to overcome chemoresistance of MM cells against conventional drugs such as dexamethasone or melphalan provides an unexpected advantageous benefit in MM treatment. The present inventors have hypothesized that the cell inhibitory activity of the inventive compounds is due to their ability to activate apoptotic processes.
Compound (1) also altered certain proteins that are known to play a role in the cell-growth cycle. […] To further explore this observation, the present inventors investigated the effect of compound (1) on several proteins involved in cell G2-M phase transition.

[2] = tested on: MM.1S and RPMI-8226 cells; assay: [3H]-thymidine incorporation, parent myeloma cell lines; assay type: cell-based, human; settings: MM.1S and RPMI-8226, 48 h
Procedure: as §1, §2

[3] = tested on: bone marrow mononuclear cells (MNC); assay: RANKL-induced osteoclast formation in bone marrow mononuclear cells; assay type: cell-based, murine and human
Procedure: FIG. 4. Effects of XIE35 and compound (1) on RANKL-induced osteoclast formation in bone marrow mononuclear cells (MNC). […] Half-medium change was performed every other day using drug-containing media where appropriate. After 5 days, the cells were fixed and stained for TRAP activity using a TRAP-staining kit (Sigma-Aldrich) according to the manufacturer's instructions. Lower panel: Human bone marrow MNCs (1×10^5 per well) were treated with rhRANKL (50 ng/ml) plus rhM-CSF (10 ng/ml), and the respective compounds as described above. After three weeks, differentiation into OCLs was assessed by staining with monoclonal antibody 23c6 using a Vectastatin-ABC-AP kit (Vector Laboratories). The antibody 23c6, which recognizes CD51/61 dimer constituting the OCL vitronectin receptor, was kindly provided by the Bone Biology Center of our university. Images were obtained with an Olympus IX70 microscope. Arrows designate the typical multinucleated osteoclasts with 3 or more nuclei.

Human MM cell U266 = assay: [3H]-thymidine uptake cell proliferation assay, U266; assay type: cell-based; settings: Homo sapiens, U-266; U266, 48 h, [3H]-thymidine uptake; read-out: inhibition of DNA synthesis in MM cells, IC50
Procedure: as §1, §2

CB2 receptor [4] = target: T1, CB2 receptor (Homo sapiens, UniProt P34972); assay: Cell-based cAMP assay
Description: Cell-based cAMP assays were used to identify the mode by which the CB2 ligands according to the present invention modulate CB2 receptor.

U266 cells = assay: Trypan blue viability of U266 cells with CB2 agonist; assay type: cell-based, human; settings: Win55212-2 or CP55940, 48 h
Procedure: (§3) FIG. 3. Inhibitory activity of PAM (compound (1)) in CB2 knockdown or agonist treated cells. (A) CB2 gene silencing in MM1.S cells confirmed by Western blot with CB2antibody. (B) Human MM1.S cells expressing shRNA vector or expressing the specific shRNA against human CB2 were treated with vehicle control (white column), or the indicated concentrations of PAM (black column) for 48 h. Cell proliferation was measured by [^3H]TdR uptake. […] The cell viability and the viable cells/well were determined using trypan blue exclusion assay.

[5] = tested on: MM1.S cells expressing shRNA against human CB2; assay: Proliferation in CB2 knockdown MM1.S cells; assay type: cell-based; settings: 48 h, [3H]TdR uptake
Procedure: as §3

[6] = target: T2, human CB2 receptor expressed in CHO cells (Homo sapiens, UniProt P34972); assay: [35S]-GTPγS binding assay; assay type: biochemical
T2 construct: expressed in transfected cells; host or cells: CHO cells

CB2 receptor [7] = target: T1, CB2 receptor; assay: [3H]CP-55,940 radioligand competition binding, CB2; parameters: host or cells: cell membrane preparations

T1 sequence (P34972 whole entry): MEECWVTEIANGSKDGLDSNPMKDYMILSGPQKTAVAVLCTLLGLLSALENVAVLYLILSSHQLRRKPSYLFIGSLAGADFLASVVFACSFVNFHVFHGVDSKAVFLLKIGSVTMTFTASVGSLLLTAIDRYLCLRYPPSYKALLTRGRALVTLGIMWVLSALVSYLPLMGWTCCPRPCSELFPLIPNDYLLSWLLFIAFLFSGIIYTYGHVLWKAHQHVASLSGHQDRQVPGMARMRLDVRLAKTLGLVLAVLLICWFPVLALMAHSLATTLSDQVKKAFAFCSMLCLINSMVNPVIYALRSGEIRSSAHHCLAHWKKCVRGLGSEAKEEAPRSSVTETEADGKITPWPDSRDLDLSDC
T2 sequence (P34972 whole entry): as above

**Q.** Which results are given for `CN(C)c1ccc(C(NC(=O)Cc2ccccc2)NC(=O)Cc2ccccc2)cc1` [Compound 1, N,N′-((4-(dimethylamino)phenyl)methylene)bis(2-phenylacetamide)]?
**A.** IC50 [1]: 600 to 1200 nM; ER stress-induced transcription factor CHOP (MM cells): transiently upregulated; H2A.X phosphorylation (MM cells): did not have any effect; MAPK family members in treated MM cells (MM cells): not up regulated; effect on Cdc25C activation of Cdc2 (MM cells): prevents the tyrosine phosphatase Cdc25C from activating cyclin-B bound Cdc2; number of cells in the G0-G1 phase (MM cells; various concentrations): does not change; number of cells in the S-phase and G2-M phase (MM cells; various concentrations): decreased in a dose dependent manner; growth inhibitory effect on parent cells [2]: no growth inhibitory effect; RANKL/M-CSF induced osteoclast formation ([3]; 1 μM, murine 5 days, human three weeks): anti-osteoclast activity; also recorded: completely blocking osteoclast formation; toxicity ([3]; concentrations as high as 1 μM): non-toxic; IC50 (Human MM cell U266): 1250 nM; mode of CB2 modulation (c-AMP studies) (CB2 receptor [4]): inverse agonist; inhibition of MM cell growth after pretreatment with CB2 agonist (U266 cells): attenuated; anti-MM activity after stable knockout of CB2 [5]: largely abrogated; CB2 receptor modulatory activity ([35S]-GTPγS) [6]: inverse CB2 receptor agonist; SI: selectivity index for CB2 (CB2 receptor [7]; Ki(CB1)/Ki(CB2) ratio): >26; Ki (CB2 receptor [7]; [3H]CP-55,940 displacement, read-out: Ki (CB2)): 777 nM
